According to patent US20230143612A1 (Arbutus Biopharma Corporation, priority 2020, published 2023):

These compounds were tested against PD-L1 His protein / PD-1 Fc protein (Homo sapiens, UniProt Q9NZQ7) (assay: HTRF Assay (PD-1/PD-L1 interaction)). Conditions: PD-L1 His 6 nM, PD-1 Fc 6 nM.
Assay type: binding
Procedure, shortened: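 Compounds tested from 20 μM down to 0.001 μM (3-fold) against 6 nM PD-L1 His and 6 nM PD-1 Fc, 15 min room temperature incubation. Detection after 1 h at room temperature with Tb cryptate anti-6HIS and XL665 anti-human IgG reagents (mixture at 0.35 nM and 6.7 nM), HTRF signal.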

Sequence of PD-L1 His protein / PD-1 Fc protein (Q9NZQ7 19-238 limits assumed): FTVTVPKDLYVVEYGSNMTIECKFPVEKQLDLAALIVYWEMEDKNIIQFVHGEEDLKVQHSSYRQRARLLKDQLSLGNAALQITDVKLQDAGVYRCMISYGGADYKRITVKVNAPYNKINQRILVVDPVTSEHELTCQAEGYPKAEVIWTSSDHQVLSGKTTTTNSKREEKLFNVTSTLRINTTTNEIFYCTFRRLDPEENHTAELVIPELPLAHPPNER

Compared with `COc1nc(-c2cccc(-c3cccc(-c4ccn5c(=O)c(CNCCc6c[nH]cn6)cnc5c4)c3Cl)c2Cl)ccc1CNC[C@@H]1CCC(=O)N1` [Example 215, 8-[2-chloro-3-[2-chloro-3-[6-methoxy-5-[[[(2S)-5-oxopyrrolidin-2-yl]methylamino]methyl]-2-pyridyl]phenyl]phenyl]-3-[[2-(1H-imidazol-4-yl)ethylamino]methyl]pyrido[1,2-a]pyrimidin-4-one], `COc1nc(-c2cccc(-c3cccc(-c4ccn5c(=O)c(CNCCn6cnnc6)cnc5c4)c3Cl)c2Cl)ccc1CNC[C@@H]1CCC(=O)N1` [Example 216, 8-[2-Chloro-3-[2-chloro-3-[6-methoxy-5-[[[(2S)-5-oxopyrrolidin-2-yl]methylamino]methyl]-2-pyridyl]phenyl]phenyl]-3-[[2-(1,2,4-triazol-4-yl)ethylamino]methyl]pyrido[1,2-a]pyrimidin-4-one] is 80-fold lower in IC50: 8 nM for the first, 0.1 nM for the second. The second is the more potent here.

Going from `COc1nc(-c2cccc(-c3cccc(-c4cnc5c(N)c(CO)sc5c4)c3Cl)c2Cl)ccc1CNC[C@@H]1CCC(=O)N1` [Example 217, (S)-5-((((6-(3′-(3-Amino-2-(hydroxymethyl)-thieno[3,2-b]-pyridin-6-yl)-2,2′-dichloro-[1,1′-biphenyl]-3-yl)-2-methoxypyridin-3-yl)methyl)amino)methyl)pyrrolidin-2-one] to `COc1nc(-c2cccc(-c3cccc(-c4cc(C)n5c(=O)c(CNC[C@H](C)O)cnc5c4)c3Cl)c2Cl)ccc1CNC[C@@H]1CCC(=O)N1` [Example 226, 8-(2,2′-Dichloro-3′-(6-methoxy-5-(((((S)-5-oxopyrrolidin-2-yl)methyl)amino)methyl)pyridin-2-yl)-[1,1′-biphenyl]-3-yl)-3-((((S)-2-hydroxypropyl)amino)methyl)-6-methyl-4H-pyrido[1,2-a]pyrimidin-4-one], the IC50 rises from 3.5 nM to 15 nM (4.3-fold). The first is the more potent here.

First: COc1nc(-c2cccc(-c3cccc(-c4ccc5c(n4)OCCNC5)c3Cl)c2Cl)ccc1CNC[C@@H]1CCC(=O)N1 [Example 218, (S)-5-((((6-(2,2′-Dichloro-3′-(2,3,4,5-tetrahydropyrido[3,2-f][1,4]oxazepin-8-yl)-[1,1′-biphenyl]-3-yl)-2-methoxypyridin-3-yl)methyl)amino)methyl)887yrrolidine-2-one]
Second: COc1nc(-c2cccc(-c3cccc(-c4ccc5nc(CN6CC(C)(O)C6)cc(=O)n5c4)c3Cl)c2Cl)ccc1CNC[C@@H]1CCC(=O)N1 [Example 222, (S)-7-(2,2′-dichloro-3′-(6-methoxy-5-((((5-oxopyrrolidin-2-yl)methyl)amino)methyl)pyridin-2-yl)-[1,1′-biphenyl]-3-yl)-2-((3-hydroxy-3-methylazetidin-1-yl)methyl)-4H-pyrido[1,2-a]pyrimidin-4-one]
The IC50 of the first is 3-fold higher: 0.6 nM for the first, 0.2 nM for the second.

First: COc1nc(-c2cccc(-c3cccc(-c4ccn5c(=O)c(CNCCN6CCCC6=O)cnc5c4)c3Cl)c2Cl)ccc1CNC[C@@H]1CCC(=O)N1 [Example 219, 8-[2-Chloro-3-[2-chloro-3-[6-methoxy-5-[[[(2S)-5-oxopyrrolidin-2-yl]methylamino]methyl]-2-pyridyl]phenyl]phenyl]-3-[[2-(2-oxopyrrolidin-1-yl)ethylamino]methyl]pyrido[1,2-a]pyrimidin-4-one]
Second: COc1nc(-c2cccc(-c3cccc(-c4ccn5c(=O)c(CNCCCC(F)(F)C(F)(F)F)cnc5c4)c3Cl)c2Cl)ccc1CNC[C@@H]1CCC(=O)N1 [Example 223, (S)-8-(2,2′-dichloro-3′-(6-methoxy-5-((((5-oxopyrrolidin-2-yl)-methyl)-amino)methyl)-pyridin-2-yl)-[1,1′-biphenyl]-3-yl)-3-(((4,4,5,5,5-pentafluoropentyl)amino)-methyl)-4H-pyrido[1,2-a]pyrimidin-4-one]
The IC50 of the first is 14-fold lower: 0.7 nM for the first, 10 nM for the second.

Compared with `COC(=O)C[C@H](O)CNCc1cnc2cc(-c3cccc(-c4cccc(-c5ccc(CNC[C@@H]6CCC(=O)N6)c(OC)n5)c4Cl)c3Cl)ccn2c1=O` [Example 220, Methyl (3S)-4-[[8-[2-chloro-3-[2-chloro-3-[6-methoxy-5-[[[(2S)-5-oxopyrrolidin-2-yl]methylamino]methyl]-2-pyridyl]phenyl]phenyl]-4-oxo-pyrido[1,2-a]pyrimidin-3-yl]methylamino]-3-hydroxy-butanoate], `COc1nc(-c2cccc(-c3cccc(-c4ccn5c(=O)c(CNC6CCS(=O)(=O)CC6)cnc5c4)c3Cl)c2Cl)ccc1CNC[C@@H]1CCC(=O)N1` [Example 224, (S)-8-(2,2′-dichloro-3′-(6-methoxy-5-((((5-oxopyrrolidin-2-yl)-methyl)amino)-methyl)-pyridin-2-yl)-[1,1′-biphenyl]-3-yl)-3-(((1,1-dioxidotetrahydro-2H-thiopyran-4-yl)-amino)methyl)-4H-pyrido[1,2-a]-pyrimidin-4-one] is 28-fold higher in IC50: 0.1 nM for the first, 2.8 nM for the second. The first is the more potent here.

Going from `COc1nc(-c2cccc(-c3cccc(-c4ccc5nc(CN[C@H]6C[C@H](O)C6)cc(=O)n5c4)c3Cl)c2Cl)ccc1CNC[C@@H]1CCC(=O)N1` [Example 221, 7-(2,2′-dichloro-3′-(6-methoxy-5-(((((S)-5-oxopyrrolidin-2-yl)methyl)amino)methyl)pyridin-2-yl)-[1,1′-biphenyl]-3-yl)-2-((((1r,3r)-3-hydroxycyclobutyl)amino)methyl)-4H-pyrido[1,2-a]pyrimidin-4-one] to `COc1nc(-c2cccc(-c3cccc(-c4ccn5c(=O)c(CN[C@H]6C[C@@](C)(O)C6)c(C)nc5c4)c3Cl)c2Cl)ccc1CNC[C@@H]1CCC(=O)N1` [Example 229, 8-(2,2′-Dichloro-3′-(6-methoxy-5-(((((S)-5-oxopyrrolidin-2-yl)methyl)amino)methyl)pyridin-2-yl)-[1,1′-biphenyl]-3-yl)-3-((((1s,3s)-3-hydroxy-3-methylcyclobutyl)amino)methyl)-2-methyl-4H-pyrido[1,2-a]pyrimidin-4-one], the IC50 rises from 0.6 nM to 6.9 nM (12-fold).

Compared with `COc1nc(-c2cccc(-c3cccc(-c4ccn5c(=O)c(CNC[C@@H]6CCC(=O)N6)c(Cl)nc5c4)c3Cl)c2Cl)ccc1CNC[C@@H]1CCC(=O)N1` [Example 227, 2-Chloro-8-(2,2′-dichloro-3′-(6-methoxy-5-(((((S)-5-oxopyrrolidin-2-yl)methyl)amino)methyl)pyridin-2-yl)-[1,1′-biphenyl]-3-yl)-3-(((((S)-5-oxopyrrolidin-2-yl)methyl)amino)methyl)-4H-pyrido[1,2-a]pyrimidin-4-one], `COc1cc2c(cc1CNC[C@@H]1CCC(=O)N1)CCC2=Cc1cccc(-c2cccc(-c3ccc(CNC[C@@H]4CCC(=O)N4)c(OC)n3)c2Cl)c1Cl` [Example 228, (S)-5-((((6-(2,2′-Dichloro-3′-((6-methoxy-5-(((((S)-5-oxopyrrolidin-2-yl)methyl)amino)methyl)-2,3-dihydro-1H-inden-1-ylidene)methyl)-[1,1′-biphenyl]-3-yl)-2-methoxypyridin-3-yl)methyl)amino)methyl)pyrrolidin-2-one] is 270-fold higher in IC50: 12 nM for the first, 3200 nM for the second.

`COc1nc(-c2cccc(-c3cccc(-c4ccn5c(=O)c(CN[C@H]6C[C@@](C)(O)C6)c(C)nc5c4)c3Cl)c2Cl)ccc1CN[C@H]1C[C@@](C)(O)C1` [Example 230, 8-(2,2′-Dichloro-3′-(5-((((1s,3s)-3-hydroxy-3-methylcyclobutyl)amino)methyl)-6-methoxypyridin-2-yl)-[1,1′-biphenyl]-3-yl)-3-((((1s,3s)-3-hydroxy-3-methylcyclobutyl)amino)methyl)-2-methyl-4H-pyrido[1,2-a]pyrimidin-4-one] was tested, and the IC50 was 98 nM.
